Experiments:
ER50.SaCas9.ER50 = ER50.SaCas9.ER50 (Homo sapiens, UniProt P03372, G521R/L384M/M421G/N519S/T371A/Y537S); conditions: cells expressing ER50.SaCas9.ER50 treated with 40HT
Text: Assessment of dose-responsiveness of DD-regulated SaCas9 gene editing activity.

[1] = test system: engineered Cas9 system comprising a functionalized guide with DHFR destabilization domain; assay: Induction of ASCL1 mRNA by engineered DD-Cas9 SAM with stabilizing ligand (FIG. 11); type: cell-based; conditions: cells transiently transfected with DD-Cas9 SAM, treated with stabilizing ligand
Experimental: FIG. 11. […] Cells were transiently transfected with engineered DD-Cas9 SAM and ASCL1 mRNA was measured. Compared to untransfected cells, DD-Cas9-SAM induced expression of ASCL1 mRNA is observed.

ER50.MS2.p65.HSF1 = ER50.MS2.p65.HSF1 (Homo sapiens, UniProt P03372, G521R/L384M/M421G/N519S/T371A/Y537S); conditions: targeted to ASCL1; increasing concentrations of 40HT, 18 h, qPCR
Text: Multidimensional ‘chemical’ control of endogenous transcript levels. […] DHFR.PP7.VP64 was targeted to ILIRN, and ER50.MS2.p65.HSF1 was targeted to ASCL1. […] Error bars represent s.e.m. from biological replicates (n=3; a,c) or ±s.d. across technical replicates (n=4; b,d).

ER50.Cas9.ER50 = assay: Cas9-mediated eGFP knockout (eGFP disruption) in U20S.eGFP-PEST cells nucleofected with ER50.Cas9.ER50; type: cell-based; conditions: increasing concentrations 0.5-1000 nM, 48 h
Text: FIG. 3A-3B. […] (a) Representative images of conditional control of Cas9-mediated eGFP knockout in U20S.eGFP-PEST cells. […] Error bars represent standard deviation from biological replicates (n=6).

[2] = biological target: engineered Cas9-SAM system comprising a DD (ER50) (Homo sapiens, UniProt P03372, G521R/L384M/M421G/N519S/T371A/Y537S); conditions: ligand 4HT
human FKBP12 = conditions: FKBP12 mutant DD; cited from earlier work
Drosophila = assay: TMP-controlled gene drive in Drosophila for green body color; type: in vivo; conditions: in the presence of TMP, wt Cas9 for comparison, DMSO control ~50% (Mendelian inheritance)
DHFR = assay: Binding of photocaged TMP derivative to DHFR; conditions: before exposure to light (NVOC group attached)
[3] = test system: temperature-sensitive mutant of mammalian DHFR (DHFRts); conditions: cells expressing DHFRts; cited from earlier work
[4] = test system: human embryonic stem cells (hESCs); assay: Mutagenic NHEJ by double nickase in human embryonic stem cells; type: cell-based; conditions: Cas9-D10A and two gRNAs targeted to different strands at the same location, data not shown
Text: In some embodiments, a vector comprises a regulatory element operably linked to an enzyme-coding sequence encoding a CRISPR protein (i.e. CRISPR/Cas system effector or CRISPR effector). […] The CRISPR enzyme is Cas9, and may be Cas9 from S. pyogenes or S. pneumoniae. In some embodiments, the CRISPR enzyme directs cleavage of one or both strands at the location of a target sequence, such as within the target sequence and/or within the complement of the target sequence. In some embodiments, the CRISPR enzyme directs cleavage of one or both strands within about 1, 2, 3, 4, 5, 6, 7, 8, 9, 10, 15, 20, 25, 50, 100, 200, 500, or more base pairs from the first or last nucleotide of a target sequence. In some embodiments, a vector encodes a CRISPR enzyme that is mutated to with respect to a corresponding wild-type enzyme such that the mutated CRISPR enzyme lacks the ability to cleave one or both strands of a target polynucleotide containing a target sequence. […] In some embodiments, a Cas9 nickase may be used in combination with guide sequenc(es), e.g., two guide sequences, which target respectively sense and antisense strands of the DNA target. This combination allows both strands to be nicked and used to induce NHEJ.

dystrophin = conditions: average, across 48 weeks; cited from earlier work

ER50.MS2.p65.HSF1, sequence (P03372 with tags, fused parts or gaps T371A/L384M/M421G/N519S/G521R/Y537S limits assumed): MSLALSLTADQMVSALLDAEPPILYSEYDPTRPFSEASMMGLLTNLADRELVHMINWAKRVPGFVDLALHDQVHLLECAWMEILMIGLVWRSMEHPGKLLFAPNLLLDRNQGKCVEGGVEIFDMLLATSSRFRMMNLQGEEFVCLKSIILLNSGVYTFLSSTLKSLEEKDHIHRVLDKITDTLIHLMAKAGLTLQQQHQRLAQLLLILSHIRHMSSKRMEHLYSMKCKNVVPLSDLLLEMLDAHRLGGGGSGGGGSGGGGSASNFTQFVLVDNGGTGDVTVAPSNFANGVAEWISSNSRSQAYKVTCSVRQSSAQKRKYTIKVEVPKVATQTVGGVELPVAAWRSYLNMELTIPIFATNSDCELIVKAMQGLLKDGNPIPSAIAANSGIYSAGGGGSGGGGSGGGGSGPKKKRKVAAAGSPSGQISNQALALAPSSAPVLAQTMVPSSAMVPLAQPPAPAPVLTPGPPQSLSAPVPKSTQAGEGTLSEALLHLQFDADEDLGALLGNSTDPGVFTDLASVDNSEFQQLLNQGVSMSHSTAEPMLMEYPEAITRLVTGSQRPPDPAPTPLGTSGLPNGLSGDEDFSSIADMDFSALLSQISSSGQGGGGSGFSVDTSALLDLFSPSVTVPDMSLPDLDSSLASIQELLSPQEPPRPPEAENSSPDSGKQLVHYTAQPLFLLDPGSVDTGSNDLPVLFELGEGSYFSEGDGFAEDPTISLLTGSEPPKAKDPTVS
ER50.SaCas9.ER50, sequence (P03372 305-549 T371A/L384M/M421G/N519S/G521R/Y537S limits assumed): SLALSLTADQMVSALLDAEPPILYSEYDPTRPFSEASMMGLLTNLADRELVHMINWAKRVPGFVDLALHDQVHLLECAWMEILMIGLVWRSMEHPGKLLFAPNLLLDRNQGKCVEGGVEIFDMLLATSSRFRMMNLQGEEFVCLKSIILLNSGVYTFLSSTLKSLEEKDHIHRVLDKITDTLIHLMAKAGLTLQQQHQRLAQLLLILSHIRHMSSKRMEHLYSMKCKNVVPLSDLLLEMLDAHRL
engineered Cas9-SAM system comprising a DD (ER50), sequence (P03372 305-549 T371A/L384M/M421G/N519S/G521R/Y537S limits assumed): as above

In the case of 4-hydroxytamoxifen [40HT], the “nuclease activity (indel activity, Surveyor assay)” value (ER50.SaCas9.ER50) is reported as “dose dependent increase”, the “ASCL1 mRNA” value [1] is reported as “significant increase” and the “endogenous gene upregulation (dose response)” value (ER50.MS2.p65.HSF1) is reported as “Highly dose-responsive”. The “genome editing (dosability)” value (ER50.Cas9.ER50) was “High dosability” and the “SAM-dependent expression of ASCL1 mRNA” value [2] was “Increased”.

In the case of `CC[C@H](C(=O)N1CCCC[C@H]1C(=O)O[C@H](CCc1ccc(OC)c(OC)c1)c1cccc(OCCN2CCOCC2)c1)c1cc(OC)c(OC)c(OC)c1` [Shield-1], the “binding to and stabilization of the DD” value (human FKBP12) is given as “dose-dependent manner”.

In the case of `COc1cc(Cc2cnc(N)nc2N)cc(OC)c1OC` [TMP, trimethoprim], the “SpCas9-mediated knockout of the ebony gene” value (DHFR-SpCas9-DHFR; TMP dose dependence) is reported as “Dose-dependent”, the “time post TMP removal from the fly food within which % ebony knockout is lowered” value (DHFR-SpCas9-DHFR; TMP removal from the fly food) is reported as ≤ 24 h and the “inheritance of the green-body color” value (Drosophila) is reported as 84%.

In the case of `COc1cc(COC(=O)Nc2ncc(Cc3cc(OC)c(OC)c(OC)c3)c(N)n2)c([N+](=O)[O-])cc1OC` [TMP-NVOC], the “binding to DHFR” value (DHFR) is reported as “prevents photocaged TMP-NVOC from binding to DHFR”.

In the case of `CN(Cc1cnc2nc(N)nc(N)c2n1)c1ccc(C(=O)N[C@@H](CCC(=O)O)C(=O)O)cc1` [methotrexate], the “degradation of DHFRts” value [3] is given as “inhibited degradation of the protein partially”.

In the case of “double nickase: Cas9-D10A and two gRNAs targeted to different strands at the same location”, the “efficiency of inducing mutagenic NHEJ relative to nuclease (regular Cas9 without D10 mutation)” value [4] is reported as “about 50%”.

For eteplirsen, the “dystrophin positive fibers compared to baseline” value (dystrophin) is given as 47%.
